From ChEMBL document CHEMBL1150546, “Adenosine dialdehyde analogs I: Regioselective synthesis of adenosine monoaldehydes” (Bioorg Med Chem Lett, 1996)
≈ marks a conversion by molar mass, not a printed value.

How the values were obtained:
Vero = test: cells; conditions: Chlorocebus sabaeus
L929 = test: cells; conditions: Mus musculus
Adenosylhomocysteinase [1] = biological target: T1, Adenosylhomocysteinase (Homo sapiens, UniProt P23526); test: Compound was tested for inhibition of S-adenosyl homocysteine (SAH) hydrolase.
Target sequence in this assay (P23526 whole entry): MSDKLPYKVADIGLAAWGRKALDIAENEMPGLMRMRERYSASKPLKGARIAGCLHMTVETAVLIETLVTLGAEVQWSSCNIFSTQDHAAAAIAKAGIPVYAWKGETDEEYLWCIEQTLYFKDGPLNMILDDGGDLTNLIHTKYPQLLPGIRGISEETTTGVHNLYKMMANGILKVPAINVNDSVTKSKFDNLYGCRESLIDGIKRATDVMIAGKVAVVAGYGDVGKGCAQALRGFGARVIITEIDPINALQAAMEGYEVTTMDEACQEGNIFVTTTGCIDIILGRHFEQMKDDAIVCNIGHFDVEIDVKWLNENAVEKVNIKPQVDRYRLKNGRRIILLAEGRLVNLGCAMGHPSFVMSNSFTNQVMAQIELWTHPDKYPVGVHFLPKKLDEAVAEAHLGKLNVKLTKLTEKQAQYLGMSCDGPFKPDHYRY

Adenosylhomocysteinase [2] = biological target: T1, Adenosylhomocysteinase; test: Percentage inhibition of S-adenosyl homocysteine (SAH) hydrolase by the compound at a concentration of 10 uM.
Target sequence in this assay (P23526 2-432 limits assumed): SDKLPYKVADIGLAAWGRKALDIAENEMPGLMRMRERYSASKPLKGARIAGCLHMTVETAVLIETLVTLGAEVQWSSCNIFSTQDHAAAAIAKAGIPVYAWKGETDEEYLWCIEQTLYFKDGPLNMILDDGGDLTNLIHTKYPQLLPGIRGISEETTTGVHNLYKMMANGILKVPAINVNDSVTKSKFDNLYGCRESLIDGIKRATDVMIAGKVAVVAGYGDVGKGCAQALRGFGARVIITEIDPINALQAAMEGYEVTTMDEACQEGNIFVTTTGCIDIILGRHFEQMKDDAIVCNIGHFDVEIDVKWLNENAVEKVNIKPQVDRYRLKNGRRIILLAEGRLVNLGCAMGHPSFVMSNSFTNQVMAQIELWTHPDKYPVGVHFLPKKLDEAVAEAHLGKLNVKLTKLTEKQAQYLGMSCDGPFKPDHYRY

Adenosylhomocysteinase [3] = biological target: T1, Adenosylhomocysteinase; test: Compound was tested for competitive inhibition against S-adenosyl homocysteine (SAH) hydrolase.
Target sequence in this assay (P23526 whole entry): as the sequence (P23526 whole entry) above

| Structure (SMILES) | IC50 (Vero) [µg/mL] | IC50 (L929) [µg/mL] | Ki (Adenosylhomocysteinase [1]) [nM] | inhibition (Adenosylhomocysteinase [2]) [%] | Ki (Adenosylhomocysteinase [3]) [nM] |
| --- | --- | --- | --- | --- | --- |
| C=C(C=O)OC(C=O)n1cnc2c(N)ncnc21 (stereo unspecified) | 11.5 (≈ 46.5 µM) | 8.9 (≈ 36 µM) | 0.5 | – | – |
| Nc1ncnc2c1ncn2[C@@H](CO)O[C@@H](C=O)CO | 0.41 (≈ 1.53 µM) | 1.9 (≈ 7.11 µM) | – | 89 | 1900 |
| Nc1ncnc2c1ncn2[C@@H](C=O)OC(CO)CO | – | – | – | 4 | – |
| Nc1ncnc2c1ncn2C(C=O)OC(C=O)CO (stereo unspecified) | 0.41 (≈ 1.55 µM) | 3.1 (≈ 11.7 µM) | 3.3 | – | – |
